Assay: xn = mol fraction of the nth substance listed

CC(C)(C)O + CC(=O)N(C)C
303.15 K, 101 kPa
Details	viscosity [mPa·s]
x2 = 0.1094	2.544
x2 = 0.2069	2.032
x2 = 0.3062	1.651
x2 = 0.4037	1.422
x2 = 0.5026	1.255
x2 = 0.6154	1.128
x2 = 0.7028	1.046
x2 = 0.8064	0.973
x2 = 0.8954	0.924

CCC(O)CO (stereo unspecified) + O=C1CCCN1
101.33 kPa
Details	viscosity [mPa·s]
298.15 K, x2 = 0.0555	46.5
298.15 K, x2 = 0.09272	42.92
298.15 K, x2 = 0.2043	34.62
298.15 K, x2 = 0.2943	29.84
298.15 K, x2 = 0.4023	25.54
298.15 K, x2 = 0.508	22.41
298.15 K, x2 = 0.6045	20.25
298.15 K, x2 = 0.6902	18.59
298.15 K, x2 = 0.7968	16.74
298.15 K, x2 = 0.8891	15.2
298.15 K, x2 = 0.9416	14.65
308.15 K, x2 = 0.04722	26.34
308.15 K, x2 = 0.1008	23.83
308.15 K, x2 = 0.2171	19.71
308.15 K, x2 = 0.2992	17.63
308.15 K, x2 = 0.6065	12.84
308.15 K, x2 = 0.6909	11.99
308.15 K, x2 = 0.8019	10.94
308.15 K, x2 = 0.886	10.18
308.15 K, x2 = 0.9402	9.675
318.15 K, x2 = 0.04672	15.75
318.15 K, x2 = 0.07619	15.07
318.15 K, x2 = 0.2048	12.57
318.15 K, x2 = 0.289	11.39
318.15 K, x2 = 0.4043	10.2
318.15 K, x2 = 0.4992	9.411
318.15 K, x2 = 0.6031	8.699
318.15 K, x2 = 0.6923	8.26
318.15 K, x2 = 0.7988	7.666
318.15 K, x2 = 0.8817	7.237
318.15 K, x2 = 0.9477	6.892

Nc1ccccc1 + CCCCO
Details	viscosity [mPa·s]
298.15 K, 101 kPa, x1 = 0.09983	2.368
298.15 K, 101 kPa, x1 = 0.1935	2.278
298.15 K, 101 kPa, x1 = 0.3051	2.249
298.15 K, 101 kPa, x1 = 0.4055	2.287
298.15 K, 101 kPa, x1 = 0.4837	2.343
298.15 K, 101 kPa, x1 = 0.6005	2.474
298.15 K, 101 kPa, x1 = 0.6946	2.637
298.15 K, 101 kPa, x1 = 0.8028	2.899
298.15 K, 101 kPa, x1 = 0.8996	3.231
303 K, 101.33 kPa, x1 = 0.1	2.031
303 K, 101.33 kPa, x1 = 0.2	1.975
303 K, 101.33 kPa, x1 = 0.3	1.951
303 K, 101.33 kPa, x1 = 0.4	1.938
303 K, 101.33 kPa, x1 = 0.5	1.962
303 K, 101.33 kPa, x1 = 0.6	2.013
303 K, 101.33 kPa, x1 = 0.7	2.186
303 K, 101.33 kPa, x1 = 0.8	2.342
303 K, 101.33 kPa, x1 = 0.9	2.751
303.15 K, 100 kPa, x1 = 0.1195	2.083
303.15 K, 100 kPa, x1 = 0.2339	1.951
303.15 K, 100 kPa, x1 = 0.3649	1.857
303.15 K, 100 kPa, x1 = 0.4693	1.843
303.15 K, 100 kPa, x1 = 0.5498	1.878
303.15 K, 100 kPa, x1 = 0.6658	1.994
303.15 K, 100 kPa, x1 = 0.7945	2.261
303.15 K, 100 kPa, x1 = 0.9166	2.647
303.15 K, 101 kPa, x1 = 0.09983	2.049
303.15 K, 101 kPa, x1 = 0.1935	1.965
303.15 K, 101 kPa, x1 = 0.3051	1.941
303.15 K, 101 kPa, x1 = 0.4055	1.965
303.15 K, 101 kPa, x1 = 0.4837	2.01
303.15 K, 101 kPa, x1 = 0.6005	2.13
303.15 K, 101 kPa, x1 = 0.6946	2.248
303.15 K, 101 kPa, x1 = 0.8028	2.468
303.15 K, 101 kPa, x1 = 0.8996	2.745
308.15 K, 101 kPa, x1 = 0.09983	1.8
308.15 K, 101 kPa, x1 = 0.1935	1.734
308.15 K, 101 kPa, x1 = 0.3051	1.703
308.15 K, 101 kPa, x1 = 0.4055	1.722
308.15 K, 101 kPa, x1 = 0.4837	1.77
308.15 K, 101 kPa, x1 = 0.6005	1.857
308.15 K, 101 kPa, x1 = 0.6946	1.971
308.15 K, 101 kPa, x1 = 0.8028	2.144
308.15 K, 101 kPa, x1 = 0.8996	2.375
313.15 K, 100 kPa, x1 = 0.1195	1.605
313.15 K, 100 kPa, x1 = 0.2339	1.484
313.15 K, 100 kPa, x1 = 0.3649	1.39
313.15 K, 100 kPa, x1 = 0.4693	1.364
313.15 K, 100 kPa, x1 = 0.5498	1.393
313.15 K, 100 kPa, x1 = 0.6658	1.492
313.15 K, 100 kPa, x1 = 0.7945	1.709
313.15 K, 100 kPa, x1 = 0.9166	2.027
313.15 K, 101 kPa, x1 = 0.09983	1.568
313.15 K, 101 kPa, x1 = 0.1935	1.5
313.15 K, 101 kPa, x1 = 0.3051	1.44
313.15 K, 101 kPa, x1 = 0.4055	1.468
313.15 K, 101 kPa, x1 = 0.4837	1.529
313.15 K, 101 kPa, x1 = 0.6005	1.613
313.15 K, 101 kPa, x1 = 0.6946	1.709
313.15 K, 101 kPa, x1 = 0.8028	1.861
313.15 K, 101 kPa, x1 = 0.8996	2.048

O=S(=O)([O-])NC1CCCCC1.[K+] + O
viscosity [mPa·s], 101 kPa
Details	x1 = 0.0007156	x1 = 0.001095	x1 = 0.001452	x1 = 0.001751	x1 = 0.002086	x1 = 0.002528	x1 = 0.002966	x1 = 0.003212	x1 = 0.003506	x1 = 0.003747
293.15 K	1.021	1.031	1.041	1.049	1.058	1.072	1.085	1.091	1.101	1.107
298.15 K	0.9071	0.9163	0.9245	0.9318	0.9397	0.9515	0.9626	0.9683	0.9765	0.982
303.15 K	0.8126	0.8204	0.8278	0.8343	0.8412	0.8514	0.8611	0.866	0.873	0.8778
313.15 K	0.6648	0.6714	0.6773	0.6823	0.6878	0.6957	0.7032	0.7073	0.7127	0.7164
323.15 K	0.5565	0.5615	0.5663	0.5703	0.5748	0.5809	0.5873	0.5902	0.5948	0.5977

CCNCC + CCCCCCO
viscosity [mPa·s], 100 kPa
Details	x1 = 0.0806	x1 = 0.1594	x1 = 0.2398	x1 = 0.3506	x1 = 0.4394	x1 = 0.559	x1 = 0.6502	x1 = 0.7392	x1 = 0.8506	x1 = 0.9401
293.15 K	4.73	4.11	3.54	2.83	2.32	1.71	1.32	0.98	0.65	0.43
303.15 K	3.45	3.02	2.59	2.08	1.7	1.27	1	0.75	0.52	0.37
313.15 K	2.58	2.24	1.92	1.53	1.25	0.93	0.73	0.55	0.398	0.31
323.15 K	1.97	1.71	1.46	1.16	0.95	0.71	0.56	0.44	0.33	0.27

CCCC(=O)OC + CCCCCCC
Details	viscosity [mPa·s]
293.15 K, 101.33 kPa, x1 = 0.08428	0.408
293.15 K, 101.33 kPa, x1 = 0.1292	0.409
293.15 K, 101.33 kPa, x1 = 0.1965	0.413
293.15 K, 101.33 kPa, x1 = 0.2883	0.419
293.15 K, 101.33 kPa, x1 = 0.3831	0.429
293.15 K, 101.33 kPa, x1 = 0.4997	0.445
293.15 K, 101.33 kPa, x1 = 0.5976	0.462
293.15 K, 101.33 kPa, x1 = 0.6939	0.483
293.15 K, 101.33 kPa, x1 = 0.7977	0.51
293.15 K, 101.33 kPa, x1 = 0.905	0.542
293.15 K, 101.33 kPa, x1 = 0.9304	0.552
303.15 K, 101.33 kPa, x1 = 0.05501	0.368
303.15 K, 101.33 kPa, x1 = 0.1135	0.369
303.15 K, 101.33 kPa, x1 = 0.1897	0.372
303.15 K, 101.33 kPa, x1 = 0.2828	0.377
303.15 K, 101.33 kPa, x1 = 0.4056	0.388
303.15 K, 101.33 kPa, x1 = 0.5087	0.4
303.15 K, 101.33 kPa, x1 = 0.5969	0.413
303.15 K, 101.33 kPa, x1 = 0.6951	0.431
303.15 K, 101.33 kPa, x1 = 0.803	0.454
303.15 K, 101.33 kPa, x1 = 0.9043	0.481
303.15 K, 101.33 kPa, x1 = 0.9349	0.49
308.15 K, 101.3 kPa, x1 = 0.0525	0.357
308.15 K, 101.3 kPa, x1 = 0.156	0.366
308.15 K, 101.3 kPa, x1 = 0.1959	0.369
308.15 K, 101.3 kPa, x1 = 0.2969	0.379
308.15 K, 101.3 kPa, x1 = 0.4989	0.406
308.15 K, 101.3 kPa, x1 = 0.5971	0.421
308.15 K, 101.3 kPa, x1 = 0.7995	0.459
308.15 K, 101.3 kPa, x1 = 0.8524	0.47
308.15 K, 101.3 kPa, x1 = 0.9236	0.487
308.15 K, 101.3 kPa, x1 = 0.9531	0.494
308.15 K, 101.3 kPa, x2 = 0.0175	0.501
313.15 K, 101.33 kPa, x1 = 0.06751	0.334
313.15 K, 101.33 kPa, x1 = 0.1218	0.335
313.15 K, 101.33 kPa, x1 = 0.1984	0.338
313.15 K, 101.33 kPa, x1 = 0.2903	0.342
313.15 K, 101.33 kPa, x1 = 0.4044	0.351
313.15 K, 101.33 kPa, x1 = 0.5173	0.363
313.15 K, 101.33 kPa, x1 = 0.5954	0.373
313.15 K, 101.33 kPa, x1 = 0.6931	0.388
313.15 K, 101.33 kPa, x1 = 0.8053	0.409
313.15 K, 101.33 kPa, x1 = 0.9053	0.432
313.15 K, 101.33 kPa, x1 = 0.9355	0.44
318.15 K, 101.3 kPa, x1 = 0.0525	0.326
318.15 K, 101.3 kPa, x1 = 0.156	0.337
318.15 K, 101.3 kPa, x1 = 0.1959	0.341
318.15 K, 101.3 kPa, x1 = 0.2969	0.352
318.15 K, 101.3 kPa, x1 = 0.4989	0.379
318.15 K, 101.3 kPa, x1 = 0.5971	0.397
318.15 K, 101.3 kPa, x1 = 0.7995	0.427
318.15 K, 101.3 kPa, x1 = 0.8524	0.437
318.15 K, 101.3 kPa, x1 = 0.9236	0.451
318.15 K, 101.3 kPa, x1 = 0.9531	0.458
318.15 K, 101.3 kPa, x2 = 0.0175	0.465
